Values quoted from earlier work in publication PMC10818380, “Triphenylphosphonium Analogs of Short Peptide Related to Bactenecin 7 and Oncocin 112 as Antimicrobial Agents” (Pharmaceutics, 2024).
Values after ≈ are worked out from the molar mass of the structure shown.

Tests used:
B. subtilis 168 = system: B. subtilis 168; parameters: method as in PMID 33922611; settings: cited from earlier work
B. subtilis CFR = settings: cited from earlier work

For `O=C(N[C@H](CO)[C@H](O)c1ccc([N+](=O)[O-])cc1)C(Cl)Cl` [Chloramphenicol], the MIC (B. subtilis 168) is given as 12 µM (≈ 3.88 µg/mL) and the MIC (B. subtilis CFR) is given as 90 µM (≈ 29.1 µg/mL).
